“And” between values parts separate entries of the source, which are not always exact repeats. Identical values can stand only once.
What was measured:
[1] = tested on: Adriamycin (ADR)-induced nephropathy in Balb/c mice; experiment: Adriamycin-induced nephropathy, dose-finding pilot study: ACR and body weight time course; details: for ACR in pilot study: days 7-28; for Body Weight / ACR in spot urine: ADR, individual mice
ABCA1 protein = experiment: Cell fractionation: ABCA1 in plasma membrane and microsomal fractions of podocytes; assay type: cell-based, human; details: podocytes; Cpd A 5 µM, Cpd G 10 µM
Description: Lysates, or cell fractions were incubated in Laemmli buffer at 55 °C for 10 min under reducing conditions. A total of 30 μg of protein from cell lysates or one-third of the volume collected in cell fraction preparations was separated by SDS-PAGE in 4–20% gradient gels (Biorad) and proteins were then transferred to PVDF membranes. After blocking with 5% TBS-milk, membranes were probed with primary antibodies overnight at 4 °C. The following primary antibodies were used: mouse anti-ABCA1 (Abcam; 1:1000), rabbit anti-GAPDH antibody (Millipore; 1:10,000), mouse anti-actin (CP01, Millipore 1:10,000), anti-MEK, anti-ERp72, anti-V5 and anti-Na^+/K^+ ATPase (Cell Signaling; all 1:1000), and rabbit anti-OSBPL7 (Sigma; 1:1000). After washing, membranes were incubated with anti-rabbit or and anti-mouse IgG-HRP antibodies (Promega, 1:10,000). Signals were detected after incubation with Westernbright ECL HRP substrate (Advansta) and luminescence signals were captured with Azure C600 Gel Imaging workstation (Azure Biosystems Inc, USA) or X-ray films.
Differentiated podocytes were treated with compounds Cpd C (1 μM), Cpd A (5 μM), or Cpd G (10 μM) for 18 h, washed and then harvested in ice-cold PBS. Cells were centrifuged at 1000 × g for 5 min, the supernatant was carefully removed, and the pellet resuspended in hypotonic buffer (15 mM KCl, 1.5 mM MgCl2, 10 mM HEPES and 1 mM DTT) supplemented with a protease inhibitor cocktail (Roche). Cells were disrupted with a glass douncer, and sucrose was added to achieve final concentration of 227 mM. Cell lysates were centrifuged at 1000 × g for 30 min at 4 °C. The supernatant was then transferred to a new tube and centrifuged at 10,000 × g for 15 min at 4 °C. The pellet, containing the microsomal fraction was collected and the supernatant was transferred to a new tube and centrifuged at 100,000 × g for 1 h at 4 °C. The pelleted plasma membrane fraction was collected and the supernatant, containing the organelle-free cytosolic fraction, was concentrated in Vivaspin 500 filter columns. Western blot was performed using antibodies for ABCA1 and specific markers for each membrane fraction as described above. Na^+/K^+ ATPase was used to identify the plasma membrane fraction, ERp72 as a marker for the microsomal-enriched fraction, and MEK as the control for the non-membranous cytosolic fraction.

[2] = tested on: Adriamycin (ADR)-induced nephropathy in Balb/c mice; experiment: Adriamycin-induced nephropathy, main study: albumin/creatinine ratio and body weight
[3] = tested on: Adriamycin (ADR)-induced nephropathy in Balb/c mice; experiment: ADR nephropathy: liver total cholesterol, cholesterol esters, triglycerides; assay type: in vivo, mouse; details: ADR model; individual animals
[4] = tested on: Adriamycin (ADR)-induced nephropathy in Balb/c mice; experiment: ADR nephropathy: WBC, hemoglobin, hematocrit, ALT, AST; assay type: in vivo, mouse
[5] = 30 mg/Kg/day, 7 days after inj, 30 mg/kg/day
[6] = 30 mg/Kg/day, 14 days after inj, 30 mg/kg/day
[7] = 30 mg/Kg/day, 21 days after inj, 30 mg/kg/day
[8] = 30 mg/Kg/day, 28 days after inj, 30 mg/kg/day
[9] = 100 mg/Kg/day, 7 days after inj, 100 mg/kg/day
[10] = 100 mg/Kg/day, 14 days after inj, 100 mg/kg/day
[11] = 100 mg/Kg/day, 21 days after inj, 100 mg/kg/day
[12] = 100 mg/Kg/day, 28 days after inj, 100 mg/kg/day
[13] = 28 days after ADR, Cpd G 100 mg/Kg
[14] = ADR-induced nephropathy, 28 days treatment, 25th quartile
[15] = ADR-induced nephropathy, 28 days treatment, 75th quartile
[16] = ADR-induced nephropathy, 28 days treatment, group maximum
[17] = ADR-induced nephropathy, 28 days treatment, group median
[18] = ADR-induced nephropathy, 28 days treatment, group minimum
[19] = ADR-induced nephropathy, 28 days treatment, individual mouse values

O=C(N[C@@H]1CCCC[C@H]1O)c1cnc(OCC(F)(F)F)c(-c2ccc(Cl)c(Cl)c2)c1 [Cpd G]
ACR in pilot study ([1]; 30 mg/kg/day oral): to a lesser extent
ACR in pilot study ([1]; 100 mg/kg/day oral): significantly improved
Body Weight ([1]; 30 mg/Kg/day, 0 days after inj, 30 mg/kg/day): 20 grams and 18 grams and 19 grams (2×) and 23 grams
ACR in spot urine [1, 5]: 0.007 mg Albumin/ mg Creatinine in urine and 0.03 mg Albumin/ mg Creatinine in urine and 0.12 mg Albumin/ mg Creatinine in urine and 31.944 mg Albumin/ mg Creatinine in urine and 0.643 mg Albumin/ mg Creatinine in urine
Body Weight [1, 5]: 18 grams and 19 grams (3×) and 23 grams
ACR in spot urine [1, 6]: 51.688 mg Albumin/ mg Creatinine in urine and 33.252 mg Albumin/ mg Creatinine in urine and 84.069 mg Albumin/ mg Creatinine in urine and 36.836 mg Albumin/ mg Creatinine in urine and 5.571 mg Albumin/ mg Creatinine in urine
Body Weight [1, 6]: 18 grams and 19 grams (2×) and 16 grams and 23 grams
ACR in spot urine [1, 7]: 85.027 mg Albumin/ mg Creatinine in urine and 29.222 mg Albumin/ mg Creatinine in urine and 44.604 mg Albumin/ mg Creatinine in urine and 23.436 mg Albumin/ mg Creatinine in urine and 5.121 mg Albumin/ mg Creatinine in urine
Body Weight [1, 7]: 17 grams and 19 grams (2×) and 18 grams and 15 grams
ACR in spot urine [1, 8]: 34.615 mg Albumin/ mg Creatinine in urine and 3.13 mg Albumin/ mg Creatinine in urine and 6.059 mg Albumin/ mg Creatinine in urine and 7.143 mg Albumin/ mg Creatinine in urine and 2.473 mg Albumin/ mg Creatinine in urine
Body Weight [1, 8]: 16 grams and 20 grams (2×) and 17 grams and 15 grams
Body Weight ([1]; 100 mg/Kg/day, 0 days after inj, 100 mg/kg/day): 20 grams (3×) and 16 grams and 22 grams
ACR in spot urine [1, 9]: 0.061 mg Albumin/ mg Creatinine in urine and 0.016 mg Albumin/ mg Creatinine in urine and 0.015 mg Albumin/ mg Creatinine in urine and 0.233 mg Albumin/ mg Creatinine in urine and 9.666 mg Albumin/ mg Creatinine in urine
Body Weight [1, 9]: 19 grams (3×) and 16 grams and 22 grams
ACR in spot urine [1, 10]: 3.994 mg Albumin/ mg Creatinine in urine and 0.535 mg Albumin/ mg Creatinine in urine and 50.828 mg Albumin/ mg Creatinine in urine and 1.336 mg Albumin/ mg Creatinine in urine and 89.551 mg Albumin/ mg Creatinine in urine
Body Weight [1, 10]: 20 grams (2×) and 19 grams (2×) and 15 grams
ACR in spot urine [1, 11]: 0.238 mg Albumin/ mg Creatinine in urine and 0.124 mg Albumin/ mg Creatinine in urine and 0.794 mg Albumin/ mg Creatinine in urine and 8.14 mg Albumin/ mg Creatinine in urine
Body Weight [1, 11]: 20 grams (3×) and 15 grams and 19 grams
ACR in spot urine [1, 12]: 0.09 mg Albumin/ mg Creatinine in urine and 0.018 mg Albumin/ mg Creatinine in urine and 0.86 mg Albumin/ mg Creatinine in urine and 0.271 mg Albumin/ mg Creatinine in urine and 3.053 mg Albumin/ mg Creatinine in urine
Body Weight [1, 12]: 20 grams (2×) and 21 grams and 20.5 grams and 16 grams
ABCA1 at the plasma membrane (ABCA1 protein): increased ABCA1 at the plasma membrane
ABCA1 in microsomal fractions (ABCA1 protein): did not increase ABCA1 in microsomal fractions
Effect on weight loss ([2]; 28 days after ADR): substantially reduced weight loss
Mice that showed no weight loss [2, 13]: 7 out of 10
Weight loss of the remaining 3 mice [2, 13]: less than 5%
ACR, median ([2]; 28 days after ADR, Cpd A 30, Cpd G 100, Cpd C 10 mg/Kg, group median): 0.6 mg albumin/mg creatinine and 0.576 mg albumin/mg creatinine
Weight (d28) ([2]; animal weight when therapy finished, single animals): 20 and 21 and 20.5 and 16 and 19 and 17
Weight Change (as % of weight at day 0), Median ([2]; day 28 after ADR, Cpd A 30, Cpd G 100, Cpd C 10 mg/Kg): 0%
Weight Change (as % of weight at day 0) ([2]; day 28 after ADR, Cpd A 30, Cpd G 100, Cpd C 10 mg/Kg, single animals): 5% and 2.5% and 0% and -9.1% and -5%
ACR values (mg Albumin / mg Creatinine) ([2]; spot urine 28 days after ADR, oral daily Cpd A 30, Cpd G 100, Cpd C 10 mg/Kg, single animals): 3.053 mg Albumin / mg Creatinine and 3.33 mg Albumin / mg Creatinine and 0.105 mg Albumin / mg Creatinine and 0.292 mg Albumin / mg Creatinine and 4.643 mg Albumin / mg Creatinine and 4.983 mg Albumin / mg Creatinine and 0.09 mg Albumin / mg Creatinine and 0.018 mg Albumin / mg Creatinine and 0.86 mg Albumin / mg Creatinine and 0.271 mg Albumin / mg Creatinine
Times lower ACR ([2]; vs ADR+V, 28 days, Cpd A 30, Cpd G 100 mg/kg/day): 30 times
LIVER CHOLESTEROL ESTERS [3]: 2.88 nmol CE/ mg protein and 6.03 nmol CE/ mg protein and 6.11 nmol CE/ mg protein and 1.54 nmol CE/ mg protein and 4.33 nmol CE/ mg protein and 2.97 nmol CE/ mg protein and 3.06 nmol CE/ mg protein
LIVER TOTAL CHOLESTEROL [3]: 118 nmol Cholesterol/ mg protein and 122 nmol Cholesterol/ mg protein and 97.7 nmol Cholesterol/ mg protein and 114 nmol Cholesterol/ mg protein and 146 nmol Cholesterol/ mg protein
LIVER TRIGLICERIDES [3]: 35 nmol Triglycerides/ mg protein and 30 nmol Triglycerides/ mg protein and 48.4 nmol Triglycerides/ mg protein and 51 nmol Triglycerides/ mg protein and 39 nmol Triglycerides/ mg protein
ADR-induced increase of ALT and AST ([4]; 28 days): partially attenuated
ALT, Median (IQR) ([4]; ADR-induced nephropathy): 213 (105-239) U/L
ALT, Range ([4]; ADR-induced nephropathy): 90-317 U/L
AST, Median (IQR) ([4]; ADR-induced nephropathy): 213 (156-220) U/L
AST, Range ([4]; ADR-induced nephropathy): 124-401 U/L
HTC, Median (IQR) ([4]; ADR-induced nephropathy): 51 (48-52) %
HTC, Range ([4]; ADR-induced nephropathy): 46-57%
Hgb, Median (IQR) ([4]; ADR-induced nephropathy): 13 g/dL
Hgb, Range ([4]; ADR-induced nephropathy): 12.2 to 13.7 g/dL
WBC, Median (IQR) ([4]; ADR-induced nephropathy): 5.2 (3.4-6.5) x103cells/µL
WBC, Range ([4]; ADR-induced nephropathy): 2.5-6.5 x103cells/µL
HTC, QR(25) [4, 14]: 49.25%
Hgb, QR(25) [4, 14]: 12.6 g/dL
WBC, QR(25) [4, 14]: 3.85 x 10^3 cells/ul
HTC, QR(75) [4, 15]: 51.75%
Hgb, QR(75) [4, 15]: 13.4 g/dL
WBC, QR(75) [4, 15]: 6.425 x 10^3 cells/ul
HTC, Max [4, 16]: 57%
Hgb, Max [4, 16]: 13.7 g/dL
WBC, Max [4, 16]: 9.8 x 10^3 cells/ul
HTC, Median [4, 17]: 51%
Hgb, Median [4, 17]: 13.1 g/dL
WBC, Median [4, 17]: 5.45 x 10^3 cells/ul
HTC, Min [4, 18]: 46%
Hgb, Min [4, 18]: 12.2 g/dL
WBC, Min [4, 18]: 2.5 x 10^3 cells/ul
Alanine Aminotransferase (ALT) [4, 19]: 220 U/dL and 105 U/dL and 213 U/dL and 156 U/dL and 239 U/dL and 317 U/dL and 90 U/dL
Aspartate Aminotransferase (AST) [4, 19]: 217 U/dL and 156 U/dL and 401 U/dL and 213 U/dL and 220 U/dL and 124 U/dL
Hematocrit HTC [4, 19]: 57% and 51% and 54% and 47% and 46% and 49% and 52% and 50%
White Blood Cells WBC [4, 19]: 9.8 x 10^3 cells/ul and 5.5 x 10^3 cells/ul and 6.2 x 10^3 cells/ul and 2.5 x 10^3 cells/ul and 5.2 x 10^3 cells/ul and 6.5 x 10^3 cells/ul and 3.4 x 10^3 cells/ul and 5.4 x 10^3 cells/ul and 8.9 x 10^3 cells/ul

Source: PMC8329197, “Compounds targeting OSBPL7 increase ABCA1-dependent cholesterol efflux preserving kidney function in two models of kidney disease” (Nature Communications, 2021)
